{
  "source": "ChEMBL document CHEMBL3112416",
  "about": "“Designing analogs of ticlopidine, a wall teichoic acid inhibitor, to avoid formation of its oxidative metabolites” (Bioorg Med Chem Lett, 2014)",
  "key": {"[1]": {"experiment": "Displacement of UDP-[14C]GlcNAc from TarO (unknown origin) after 2.5 hrs by scintillation counting analysis"}, "Staphylococcus aureus [2]": {"system": "Staphylococcus aureus", "experiment": "Ratio of MIC for community acquired methicillin-resistant Staphylococcus aureus USA300 in presence of targocil to MIC for community acquired methicillin-resistant Staphylococcus aureus USA300 by checkerboard broth microdilution assay", "type": "functional"}, "Staphylococcus aureus [3]": {"system": "Staphylococcus aureus", "experiment": "Ratio of MIC for community acquired methicillin-resistant Staphylococcus aureus USA300 in presence of cefuroxime to MIC for community acquired methicillin-resistant Staphylococcus aureus USA300 by checkerboard broth microdilution assay", "type": "functional"}},
  "note": "pIC50: −log10 of the molar value.",
  "data": [
    {"smiles": "Clc1ccc2c(c1)CCN(Cc1ccccc1Cl)C2", "values": [
      {"measurement": "pIC50", "setting": "[1]", "value": 3.72},
      {"measurement": "fractional inhibitory concentration index (FICI)", "setting": "Staphylococcus aureus [2]", "value": 4.5},
      {"measurement": "fractional inhibitory concentration index (FICI)", "setting": "Staphylococcus aureus [3]", "value": 2}
    ]},
    {"smiles": "Clc1ccccc1CN1CCCC1", "values": [
      {"measurement": "fractional inhibitory concentration index (FICI)", "setting": "Staphylococcus aureus [2]", "value": 2},
      {"measurement": "fractional inhibitory concentration index (FICI)", "setting": "Staphylococcus aureus [3]", "value": 2}
    ]},
    {"smiles": "O=C(O)C(c1ccccc1C(F)(F)F)N1CCc2ccccc2C1", "note": "(racemic)", "values": [
      {"measurement": "fractional inhibitory concentration index (FICI)", "setting": "Staphylococcus aureus [2]", "value": 2},
      {"measurement": "fractional inhibitory concentration index (FICI)", "setting": "Staphylococcus aureus [3]", "value": 2}
    ]},
    {"smiles": "NC(=O)C(c1ccccc1C(F)(F)F)N1CCc2ccccc2C1", "note": "(racemic)", "values": [
      {"measurement": "fractional inhibitory concentration index (FICI)", "setting": "Staphylococcus aureus [2]", "value": 2},
      {"measurement": "fractional inhibitory concentration index (FICI)", "setting": "Staphylococcus aureus [3]", "value": 1}
    ]},
    {"smiles": "O=[N+]([O-])c1ccccc1CN1CCc2ccccc2C1", "values": [
      {"measurement": "fractional inhibitory concentration index (FICI)", "setting": "Staphylococcus aureus [2]", "value": 8.3},
      {"measurement": "fractional inhibitory concentration index (FICI)", "setting": "Staphylococcus aureus [3]", "value": 0.19}
    ]},
    {"smiles": "Cc1ccccc1CN1CCc2ccccc2C1", "values": [
      {"measurement": "fractional inhibitory concentration index (FICI)", "setting": "Staphylococcus aureus [2]", "value": 8.1},
      {"measurement": "fractional inhibitory concentration index (FICI)", "setting": "Staphylococcus aureus [3]", "value": 0.13}
    ]},
    {"smiles": "COC(=O)C(c1ccccc1Cl)N1CCc2ccccc2C1", "note": "(racemic)", "values": [
      {"measurement": "pIC50", "setting": "[1]", "value": 3.72},
      {"measurement": "fractional inhibitory concentration index (FICI)", "setting": "Staphylococcus aureus [2]", "value": 8.2},
      {"measurement": "fractional inhibitory concentration index (FICI)", "setting": "Staphylococcus aureus [3]", "value": 0.19}
    ]},
    {"smiles": "COC(=O)C(c1ccccc1C(F)(F)F)N1CCc2ccccc2C1", "note": "(racemic)", "values": [
      {"measurement": "fractional inhibitory concentration index (FICI)", "setting": "Staphylococcus aureus [2]", "value": 8.3},
      {"measurement": "fractional inhibitory concentration index (FICI)", "setting": "Staphylococcus aureus [3]", "value": 0.13}
    ]},
    {"smiles": "COC(=O)[C@H](c1ccccc1Cl)N1CCc2sccc2C1", "note": "[CLOPIDOGREL]", "values": [
      {"measurement": "pIC50", "setting": "[1]", "value": 3.82},
      {"measurement": "fractional inhibitory concentration index (FICI)", "setting": "Staphylococcus aureus [2]", "value": 8.1},
      {"measurement": "fractional inhibitory concentration index (FICI)", "setting": "Staphylococcus aureus [3]", "value": 0.19}
    ]},
    {"smiles": "c1ccc2c(c1)CCN(Cc1ccc3ccccc3c1)C2", "values": [
      {"measurement": "pIC50", "setting": "[1]", "value": 3.66},
      {"measurement": "fractional inhibitory concentration index (FICI)", "setting": "Staphylococcus aureus [2]", "value": 8.1},
      {"measurement": "fractional inhibitory concentration index (FICI)", "setting": "Staphylococcus aureus [3]", "value": 0.31}
    ]},
    {"smiles": "Oc1ccc2c(c1)CN(Cc1ccccc1Cl)CC2", "values": [
      {"measurement": "fractional inhibitory concentration index (FICI)", "setting": "Staphylococcus aureus [2]", "value": 4.5},
      {"measurement": "fractional inhibitory concentration index (FICI)", "setting": "Staphylococcus aureus [3]", "value": 2}
    ]},
    {"smiles": "Clc1cccc(CN2CCc3ccccc3C2)c1", "values": [
      {"measurement": "pIC50", "setting": "[1]", "value": 3.57},
      {"measurement": "fractional inhibitory concentration index (FICI)", "setting": "Staphylococcus aureus [2]", "value": 8.1},
      {"measurement": "fractional inhibitory concentration index (FICI)", "setting": "Staphylococcus aureus [3]", "value": 2}
    ]},
    {"smiles": "FC(F)(F)c1ccccc1CN1CCc2ccccc2C1", "values": [
      {"measurement": "pIC50", "setting": "[1]", "value": 3.46},
      {"measurement": "fractional inhibitory concentration index (FICI)", "setting": "Staphylococcus aureus [2]", "value": 8.3},
      {"measurement": "fractional inhibitory concentration index (FICI)", "setting": "Staphylococcus aureus [3]", "value": 0.094}
    ]},
    {"smiles": "Clc1ccccc1C[n+]1ccc2ccccc2c1", "values": [
      {"measurement": "pIC50", "setting": "[1]", "value": "< 2.30"},
      {"measurement": "fractional inhibitory concentration index (FICI)", "setting": "Staphylococcus aureus [2]", "value": 2},
      {"measurement": "fractional inhibitory concentration index (FICI)", "setting": "Staphylococcus aureus [3]", "value": 2}
    ]},
    {"smiles": "Clc1ccc(CN2CCc3ccccc3C2)cc1", "values": [
      {"measurement": "fractional inhibitory concentration index (FICI)", "setting": "Staphylococcus aureus [2]", "value": 8.1},
      {"measurement": "fractional inhibitory concentration index (FICI)", "setting": "Staphylococcus aureus [3]", "value": 2}
    ]},
    {"smiles": "Clc1ccccc1CC1CCc2ccccc2N1", "note": "(stereo not drawn)", "values": [
      {"measurement": "pIC50", "setting": "[1]", "value": 3.57},
      {"measurement": "fractional inhibitory concentration index (FICI)", "setting": "Staphylococcus aureus [2]", "value": 8.3},
      {"measurement": "fractional inhibitory concentration index (FICI)", "setting": "Staphylococcus aureus [3]", "value": 0.19}
    ]},
    {"smiles": "Clc1ccccc1CN1CCC2CCCCC2C1", "note": "(stereo not drawn)", "values": [
      {"measurement": "fractional inhibitory concentration index (FICI)", "setting": "Staphylococcus aureus [2]", "value": 2},
      {"measurement": "fractional inhibitory concentration index (FICI)", "setting": "Staphylococcus aureus [3]", "value": 2}
    ]},
    {"smiles": "Clc1ccccc1CN1CCCCC1", "values": [
      {"measurement": "pIC50", "setting": "[1]", "value": 2.96},
      {"measurement": "fractional inhibitory concentration index (FICI)", "setting": "Staphylococcus aureus [2]", "value": 2},
      {"measurement": "fractional inhibitory concentration index (FICI)", "setting": "Staphylococcus aureus [3]", "value": 2}
    ]},
    {"smiles": "Clc1ccccc1CN1CCc2ccccc2C1", "values": [
      {"measurement": "pIC50", "setting": "[1]", "value": 3.28},
      {"measurement": "fractional inhibitory concentration index (FICI)", "setting": "Staphylococcus aureus [2]", "value": 8.1},
      {"measurement": "fractional inhibitory concentration index (FICI)", "setting": "Staphylococcus aureus [3]", "value": 0.13}
    ]},
    {"smiles": "O=C(O)C(c1ccccc1Cl)N1CCc2ccccc2C1", "note": "(racemic)", "values": [
      {"measurement": "pIC50", "setting": "[1]", "value": 3.36},
      {"measurement": "fractional inhibitory concentration index (FICI)", "setting": "Staphylococcus aureus [2]", "value": 2},
      {"measurement": "fractional inhibitory concentration index (FICI)", "setting": "Staphylococcus aureus [3]", "value": 0.75}
    ]},
    {"smiles": "CCN1CCN(Cc2ccccc2Cl)CC1", "values": [
      {"measurement": "fractional inhibitory concentration index (FICI)", "setting": "Staphylococcus aureus [2]", "value": 2},
      {"measurement": "fractional inhibitory concentration index (FICI)", "setting": "Staphylococcus aureus [3]", "value": 2}
    ]},
    {"smiles": "c1ccc2c(c1)CCN(Cc1ccncc1)C2", "values": [
      {"measurement": "fractional inhibitory concentration index (FICI)", "setting": "Staphylococcus aureus [2]", "value": 2},
      {"measurement": "fractional inhibitory concentration index (FICI)", "setting": "Staphylococcus aureus [3]", "value": 2}
    ]},
    {"smiles": "c1cc2c(s1)CCNC2", "values": [
      {"measurement": "pIC50", "setting": "[1]", "value": 2.37},
      {"measurement": "fractional inhibitory concentration index (FICI)", "setting": "Staphylococcus aureus [2]", "value": 2},
      {"measurement": "fractional inhibitory concentration index (FICI)", "setting": "Staphylococcus aureus [3]", "value": 2}
    ]},
    {"smiles": "O=C(O)C(c1ccccc1Cl)N1CCc2sccc2C1", "note": "(racemic)", "values": [
      {"measurement": "fractional inhibitory concentration index (FICI)", "setting": "Staphylococcus aureus [2]", "value": 2},
      {"measurement": "fractional inhibitory concentration index (FICI)", "setting": "Staphylococcus aureus [3]", "value": 0.75}
    ]},
    {"smiles": "Fc1ccccc1CN1CCc2ccccc2C1", "values": [
      {"measurement": "fractional inhibitory concentration index (FICI)", "setting": "Staphylococcus aureus [2]", "value": 8},
      {"measurement": "fractional inhibitory concentration index (FICI)", "setting": "Staphylococcus aureus [3]", "value": 0.25}
    ]},
    {"smiles": "c1ccc(CN2CCc3ccccc3C2)cc1", "values": [
      {"measurement": "pIC50", "setting": "[1]", "value": 3.57},
      {"measurement": "fractional inhibitory concentration index (FICI)", "setting": "Staphylococcus aureus [2]", "value": 1.3},
      {"measurement": "fractional inhibitory concentration index (FICI)", "setting": "Staphylococcus aureus [3]", "value": 0.63}
    ]},
    {"smiles": "Clc1ccccc1CN1CCc2sccc2C1", "note": "[TICLOPIDINE]", "values": [
      {"measurement": "pIC50", "setting": "[1]", "value": 3.82},
      {"measurement": "fractional inhibitory concentration index (FICI)", "setting": "Staphylococcus aureus [2]", "value": 8.3},
      {"measurement": "fractional inhibitory concentration index (FICI)", "setting": "Staphylococcus aureus [3]", "value": 0.13}
    ]}
  ]
}
